Legend:
[1] = target: c-Src (Homo sapiens (Human), UniProt P12931); test: c-Src enzyme inhibition, Z-LYTE FRET; format: biochemical
Description: (§1) The enzyme inhibitory activities of compounds disclosed herein are determined by FRET using synthetic peptides labelled with both donor and acceptor fluorophores (Z-LYTE, Invitrogen Ltd., Paisley, UK).
(§2) The inhibitory activities of compounds of the invention against c-Src and Syk enzymes (Invitrogen), are evaluated in a similar fashion to that described hereinabove. The relevant enzyme (3000 ng/mL or 2000 ng/mL respectively, 2.5 μL) is incubated with the test compound (either 4 μg/mL, 0.4 μg/mL, 0.04 μg/mL, or 0.004 μg/mL, 2.5 μL each) for 2 hr at RT. The FRET peptides (8 μM. 2.5 μL), and appropriate ATP solutions (2.5 μL, 800 μM for c-Src, and 60 μM ATP for Syk) are then added to the enzymes/compound mixtures and incubated for 1 hr. Development reagent (protease, 5 μL) is added for 1 hr prior to detection in a fluorescence microplate reader (Varioskan® Flash, ThermoFisher Scientific).
(§3) In all cases, the site-specific protease cleaves non-phosphorylated peptide only and eliminates the FRET signal. Phosphorylation levels of each reaction are calculated using the ratio of coumarin emission (donor) over fluorescein emission (acceptor), for which high ratios indicate high phosphorylation and low ratios indicate low phosphorylation levels. The percentage inhibition of each reaction is calculated relative to non-inhibited control and the 50% inhibitory concentration (IC50 value) is then calculated from the concentration-response curve.

[2] = system: PBMCs; test: LPS-induced TNFα/IL-8 release in PBMC cells; format: cell-based; conditions: Homo sapiens, LPS-stimulated PBMCs, IL-8, read-out: IC50 Values for Inhibition of Cytokine Release PBMCs IL-8
Description: Peripheral blood mononuclear cells (PBMCs) from healthy subjects are separated from whole blood using a density gradient (Lymphoprep, Axis-Shield Healthcare). The PBMCs are seeded in 96 well plates and treated with compounds at the desired concentration for 2 hours before addition of 1 ng/mL LPS (Escherichia Coli 0111:B4 from Sigma Aldrich) for 24 hours under normal tissue culture conditions (37° C., 5% CO2). The supernatant is harvested for determination of IL-8 and TNFα concentrations by sandwich ELISA (Duo-set, R&D systems) and read on the fluorescence microplate reader (Varioskan® Flash, ThermoFisher Scientific). The concentration at 50% inhibition (IC50) of IL-8 and TNFα production is calculated from the dose response curve.

[3] = system: TNBS-induced colitis in mice; test: TNBS-induced colitis in mice; format: in vivo; set-up: Ulcer grade / LP inflammation: scale not given here; conditions: for LP inflammation / Ulcer grade: 2 days; for Activity in in vivo model of colonic inflammation (histopathology analysis) / Inflammatory cell infiltrate in the reticular and lamina propria zones: assay (iv) conducted over 2 days; for Ulcer grade and epithelial repair compared to the vehicle control: dosed orally at 5 mg/kg (Example 2: at 1 and at 5 mg/kg)
Description: On Day 0 of the study TNBS (200 μL) is administered intra-colonically via a plastic catheter followed by BID dosing of the vehicle, reference or test compound for 2 or 4 days. During the study animals are weighed every day and stool observations are made and recorded as a score, based on stool consistency. At the time of sacrifice on Day 2 (or Day 4) the large intestine is removed and the length and weight recorded. Sections of the colon are taken for either MPO analysis to determine neutrophil infiltration or for histopathology involving scoring to determine disease severity.

[4] = system: PBMCs; test: IL-2 and IFN gamma release in CD3/CD28 stimulated PBMC cells; format: cell-based; conditions: Homo sapiens
Description: PBMCs from healthy subjects are separated from whole blood using a density gradient (Lymphoprep, Axis-Shield Healthcare). Cells are added to a 96 well plate pre-coated with a mixture of CD3/CD38 monoclonal antibodies (0.3 μg/mL eBioscience and 3 μg/mL BD Pharmingen respectively). Compound at the desired concentration is then added to the wells and the plate left for 3 days under normal tissue culture conditions. Supernatants are harvested and IL-2 and IFN gamma release determined by Sandwich ELISA (Duo-set, R&D System). The IC50 is determined from the dose response curve.

[5] = target: p38 MAPKα (Homo sapiens (Human), UniProt Q16539); test: p38 MAPKα enzyme inhibition (Method 2), Z-LYTE FRET; format: biochemical
Description: as §1
The inhibitory activities of test compounds against the p38 MAPKα isoform (MAPK14: Invitrogen), are evaluated indirectly by determining the level of activation/phosphorylation of the down-stream molecule, MAPKAP-K2. The p38 MAPKα protein (80 ng/mL, 2.5 μL) is mixed with the test compound (2.5 μL of either 4 μg/mL, 0.4 μg/mL, 0.04 μg/mL or 0.004 μg/mL) for 2 hr at RT. […] The mixture is incubated for 1 hr at RT. Development reagent (protease, […]) is added for 1 hr prior to detection in a fluorescence microplate reader (Varioskan® Flash, ThermoFisher Scientific).
This method follows the same steps as Method 1 above, but utilises a higher concentration of the p38 MAPKα protein (2.5 μL of 200 ng/mL protein instead of 2.5 μL of 80 ng/mL protein) for mixing with the test compound.
as §3

[6] = target: GSK3α (Homo sapiens (Human), UniProt P49840); test: GSK 3α enzyme inhibition (Method 2), Z-LYTE FRET; format: biochemical
Description: as §1
The inhibitory activities of compounds of the invention against the GSK 3α enzyme isoform (Invitrogen), are evaluated by determining the level of activation/phosphorylation of the target peptide. The GSK3-α protein (500 ng/mL, 2.5 μL) is mixed with the test compound (2.5 μL at either 4 μg/mL, 0.4 μg/mL, 0.04 μg/mL, or 0.004 μg/mL) for 2 hr at RT. The FRET peptide (8 μM, 2.5 μL), which is a phosphorylation target for GSK3α, and ATP (40 μM, 2.5 μL) are then added to the enzyme/compound mixture and the resulting mixture incubated for 1 hr. Development reagent (protease, 5 μL) is added for 1 hr prior to detection in a fluorescence microplate reader (Varioskan® Flash, ThermoFisher Scientific).
as §3
This method follows the same steps as Method 1 above, but utilises a shorter period of mixing of the test compound (105 minutes instead of 2 hours) with the GSK3-α protein.

[7] = target: Syk (Homo sapiens (Human), UniProt P43405); test: Syk enzyme inhibition, Z-LYTE FRET; format: biochemical
Description: as §1, §2, §3

[8] = IFNγ, read-out: IC50 Values for Inhibition of Cytokine Release PBMCs IFNγ
[9] = IL-2, read-out: IC50 Values for Inhibition of Cytokine Release PBMCs IL-2

c-Src, sequence (P12931 whole entry, looked up): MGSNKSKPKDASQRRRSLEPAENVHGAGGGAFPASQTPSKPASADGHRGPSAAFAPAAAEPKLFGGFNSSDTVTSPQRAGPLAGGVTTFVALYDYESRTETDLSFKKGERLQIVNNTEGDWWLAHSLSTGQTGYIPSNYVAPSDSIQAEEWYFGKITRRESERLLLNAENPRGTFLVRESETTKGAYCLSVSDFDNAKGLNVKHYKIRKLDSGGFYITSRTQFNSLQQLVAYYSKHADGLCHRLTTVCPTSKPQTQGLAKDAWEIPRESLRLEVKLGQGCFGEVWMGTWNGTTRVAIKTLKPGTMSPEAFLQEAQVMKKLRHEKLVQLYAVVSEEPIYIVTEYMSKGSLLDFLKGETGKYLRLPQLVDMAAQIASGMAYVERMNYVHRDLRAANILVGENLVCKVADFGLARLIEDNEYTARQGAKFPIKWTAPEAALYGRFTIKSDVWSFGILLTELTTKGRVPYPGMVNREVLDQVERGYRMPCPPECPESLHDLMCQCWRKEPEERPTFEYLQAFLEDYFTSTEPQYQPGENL
GSK3α, sequence (P49840 whole entry): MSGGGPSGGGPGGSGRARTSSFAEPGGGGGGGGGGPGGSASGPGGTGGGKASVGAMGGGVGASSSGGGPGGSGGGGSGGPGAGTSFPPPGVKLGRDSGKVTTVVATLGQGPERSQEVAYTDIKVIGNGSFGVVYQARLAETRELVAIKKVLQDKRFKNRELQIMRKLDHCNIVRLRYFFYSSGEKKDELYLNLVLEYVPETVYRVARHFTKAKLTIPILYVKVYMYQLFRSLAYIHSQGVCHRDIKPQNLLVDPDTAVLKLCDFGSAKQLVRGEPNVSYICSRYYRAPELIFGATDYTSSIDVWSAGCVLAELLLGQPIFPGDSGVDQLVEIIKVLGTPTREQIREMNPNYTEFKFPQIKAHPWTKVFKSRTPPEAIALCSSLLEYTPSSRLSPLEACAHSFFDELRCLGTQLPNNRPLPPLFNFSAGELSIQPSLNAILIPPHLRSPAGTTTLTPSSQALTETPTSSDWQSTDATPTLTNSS
p38 MAPKα, sequence (Q16539 whole entry): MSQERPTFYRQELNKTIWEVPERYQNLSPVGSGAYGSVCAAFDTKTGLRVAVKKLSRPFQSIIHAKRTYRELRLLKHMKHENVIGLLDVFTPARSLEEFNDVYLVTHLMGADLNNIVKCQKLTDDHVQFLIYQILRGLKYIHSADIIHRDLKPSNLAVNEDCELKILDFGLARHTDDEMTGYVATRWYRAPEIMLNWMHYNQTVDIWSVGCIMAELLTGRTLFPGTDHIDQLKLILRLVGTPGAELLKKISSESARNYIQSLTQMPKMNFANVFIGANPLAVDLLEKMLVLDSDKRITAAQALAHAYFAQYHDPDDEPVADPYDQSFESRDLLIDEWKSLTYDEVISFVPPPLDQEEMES

Structure (SMILES) | IC50 [1] [nM] | IC50 [2] [nM] | LP inflammation ([3]; Experiment 1, 1 mg/kg oral BID, TNBS + Vehicle 3.9 ± 0.3) | Ulcer grade ([3]; Experiment 1, 1 mg/kg oral BID, TNBS + Vehicle 4.0 ± 0.5) | LP inflammation ([3]; Experiment 1, 5 mg/kg oral BID, TNBS + Vehicle 3.9 ± 0.3) | Ulcer grade ([3]; Experiment 1, 5 mg/kg oral BID, TNBS + Vehicle 4.0 ± 0.5) | Activity in in vivo model of colonic inflammation (histopathology analysis) [3] | Inflammatory cell infiltrate in the reticular and lamina propria zones [3] | Ulcer grade and epithelial repair compared to the vehicle control [3] | IC50 [4, 8] [nM] | IC50 [4, 9] [nM] | IC50 [5] [nM] | IC50 [6] [nM] | IC50 [7] [nM] | Ulcer grade ([3]; Experiment 2, 1 mg/kg oral BID, TNBS + Vehicle 4.4 ± 0.2) | LP inflammation ([3]; Experiment 2, 1 mg/kg oral BID, TNBS + Vehicle 4.5 ± 0.2) | Ulcer grade ([3]; Experiment 2, 5 mg/kg oral BID, TNBS + Vehicle 4.4 ± 0.2) | LP inflammation ([3]; Experiment 2, 5 mg/kg oral BID, TNBS + Vehicle 4.5 ± 0.2)
C#CC(C)(C)c1cc(NC(=O)Nc2ccc(Oc3ccnc(Nc4cc(C)c5[nH]ncc5c4)n3)c3ccccc23)n(-c2ccc(C)cc2)n1 [Example 2, 1-(4-((2-((7-Methyl-1H-indazol-5-yl)amino)pyrimidin-4-yl)oxy)naphthalen-1-yl)-3-(3-(2-methylbut-3-yn-2-yl)-1-(p-tolyl)-1H-pyrazol-5-yl)urea] | 24 | 2 | 2.7 ± 0.4 | 3.4 ± 0.6 | 1.7 ± 0.4 | 2.4 ± 0.6 | significant activity | marked reduction | marked improvements | 3.6 | 18 | 380 | > 10000 | 50 | – | – | – | –
C#CC(C)(C)c1cc(NC(=O)Nc2ccc(Oc3ccnc(Nc4cc(OC)cc(OCCOCCOCCOC)c4)n3)c3ccccc23)n(-c2ccc(C)cc2)n1 [Example 13, 1-(4-((2-((3-Methoxy-5-(2-(2-(2-methoxyethoxy)ethoxy)ethoxy)phenyl)amino)pyrimidin-4-yl)oxy)naphthalen-1-yl)-3-(3-(2-methylbut-3-yn-2-yl)-1-(p-tolyl)-1H-pyrazol-5-yl)urea] | 16 | 1.7 | – | – | – | – | significant activity | marked reduction | marked improvements | 1.3 | 58.8 | 152 | 6400 | 61 | 3.0 ± 0.4 | 2.8 ± 0.3 | 2.9 ± 0.5 | 2.3 ± 0.3
